Data on 2 molecules can be found in US5932709A (University of Michigan, priority 1997, dated 1999).

Series [1] in a line: Murine P388 leukemia model in vivo. Details: species or system mouse (B6D2F1). Particulars: mouse, in vivo, ip; i.p. daily×5. In short, it runs like this: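 B6D2F1 mice inoculated i.p. with 1×10^6 P388 leukemia cells (from ascites, resuspended in saline) on day 0; dosing at MTD from dose-finding in non-tumored mice where no dosing information exists. Mean survival of treated over control mice gives T/C×100% (increase in life span).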

Series [2] has as its system human prostate tumor xenograft. Briefly: Human prostate tumor xenograft model. The series is classed as in vivo, human tumor in nude mice. From the text: (§1) For the human lung and prostate tumor xenograft models the following procedure was used. Nude mice were implanted s.c. by trocar with fragments of human lung or prostate carcinomas harvested from s.c. growing tumors in nude mice hosts. When tumors were approximately 5 mm×5 mm in size (usually ten to fourteen days after inoculation), the animals were pair-matched into treatment and control groups. Each group contained 10 tumored mice, each of which was ear-tagged and followed individually throughout the experiment. […] The doses, route of drug administration and schedule were selected as appropriate for the study in question. (See above protocol). […] Topotecan was run as a positive control at its MTD dose on a daily×5 and a daily×1 schedule. Male nude mice were used for both prostate studies.
(§2) Mice are weighed twice weekly, and tumor measurements were taken by calipers twice weekly, starting on day 1.
(§3) Some drugs cause tumor shrinkage in the human tumor xenograft models. […] A mean % tumor shrinkage can be calculated from the data from the mice in a group that experienced tumor regressions.

Series [3] relates to human lung tumor xenograft. Description: Human lung tumor xenograft model. The format is in vivo, human tumor in nude mice.
Excerpt: as §1, §2, §3
A general note: In xenograft studies the graft and the host belong to different species.

Take `CC[C@@]1(O)C(=O)OCc2c1cc1n(c2=O)Cc2c-1nc1ccccc1c2CO[C@@H]1C=C[C@H](O[C@H]2O[C@H](CO)[C@@H](O)[C@H](O)[C@H]2O)[C@@H](CO)O1` [HAR6, 7-[4-O-(α-D-glucopyranosyl)-2,3-dideoxy-α-D-erythro-hex-2-enopyranosyl]-oxymethylcamptothecin]: in series [1], the MTD came out at 100 mg/kg.

Turning to `CC[C@@]1(O)C(=O)OCc2c1cc1n(c2=O)Cc2c-1nc1ccccc1c2CO[C@@H]1C=C[C@H](O)[C@@H](CO)O1` [HAR7, 7-[2,3-dideoxy-α-D-erythro-hex-2-enopyranosyl]-oxymethylcamptothecin], the Deaths in series [2] (30 mg/kg × 5 days) was 0/10; in series [2] (100 mg single ds) it was 0/10; in series [2] (200 mg single ds), 0/10; in series [3] (30 mg/kg × 5 days), 0/10; in series [3] (200 mg single ds), 1/10. Besides, the “Shrink (number of animals)” value in series [2] (30 mg/kg × 5 days) is 0/10; in series [2] (100 mg single ds), 1/10; in series [2] (200 mg single ds) it was 0/10; in series [3] (30 mg/kg × 5 days), 2/10; in series [3] (200 mg single ds), 2/10. For the same molecule, the “TGI (% Tumor Growth Inhibition Rate)” value worked out at 77% in series [2] (30 mg/kg × 5 days); 51% in series [2] (100 mg single ds); 80% in series [2] (200 mg single ds); 67% in series [3] (30 mg/kg × 5 days); 64% in series [3] (200 mg single ds). Moreover, the “TGI (number of animals)” value in series [2] (30 mg/kg × 5 days) is recorded as 10/10; in series [2] (100 mg single ds), 9/10; in series [2] (200 mg single ds) it was 10/10; in series [3] (30 mg/kg × 5 days), 8/10; in series [3] (200 mg single ds) it was 7/10. The “Shrink (% Tumor Shrinkage Rate)” value worked out at 20% in series [2] (100 mg single ds), 100% in series [3] (30 mg/kg × 5 days) and 67% in series [3] (200 mg single ds). In series [2] (in words), the “activity against prostate xenograft model” value is reported as “outstanding activity”. The “efficacy, single dose” value in series [2] (single dose, in words) is reported as “significant tumor growth inhibition”; in series [3] (single dose, in words), “significant tumor growth inhibition”. In addition, the “complete disappearance of tumors (animals)” value in series [3] (30 mg/kg daily×5) was determined as 2. In addition, the “activity against lung xenograft model” value in series [3] (in words) is recorded as “outstanding activity”.
